For the assay, the target named is ROCK2 (human) (UniProt O75116). Kind of assay: Inhibition of ROCK2 Kinase Activity.
Chain of ROCK2 (human) (O75116 whole entry, looked up): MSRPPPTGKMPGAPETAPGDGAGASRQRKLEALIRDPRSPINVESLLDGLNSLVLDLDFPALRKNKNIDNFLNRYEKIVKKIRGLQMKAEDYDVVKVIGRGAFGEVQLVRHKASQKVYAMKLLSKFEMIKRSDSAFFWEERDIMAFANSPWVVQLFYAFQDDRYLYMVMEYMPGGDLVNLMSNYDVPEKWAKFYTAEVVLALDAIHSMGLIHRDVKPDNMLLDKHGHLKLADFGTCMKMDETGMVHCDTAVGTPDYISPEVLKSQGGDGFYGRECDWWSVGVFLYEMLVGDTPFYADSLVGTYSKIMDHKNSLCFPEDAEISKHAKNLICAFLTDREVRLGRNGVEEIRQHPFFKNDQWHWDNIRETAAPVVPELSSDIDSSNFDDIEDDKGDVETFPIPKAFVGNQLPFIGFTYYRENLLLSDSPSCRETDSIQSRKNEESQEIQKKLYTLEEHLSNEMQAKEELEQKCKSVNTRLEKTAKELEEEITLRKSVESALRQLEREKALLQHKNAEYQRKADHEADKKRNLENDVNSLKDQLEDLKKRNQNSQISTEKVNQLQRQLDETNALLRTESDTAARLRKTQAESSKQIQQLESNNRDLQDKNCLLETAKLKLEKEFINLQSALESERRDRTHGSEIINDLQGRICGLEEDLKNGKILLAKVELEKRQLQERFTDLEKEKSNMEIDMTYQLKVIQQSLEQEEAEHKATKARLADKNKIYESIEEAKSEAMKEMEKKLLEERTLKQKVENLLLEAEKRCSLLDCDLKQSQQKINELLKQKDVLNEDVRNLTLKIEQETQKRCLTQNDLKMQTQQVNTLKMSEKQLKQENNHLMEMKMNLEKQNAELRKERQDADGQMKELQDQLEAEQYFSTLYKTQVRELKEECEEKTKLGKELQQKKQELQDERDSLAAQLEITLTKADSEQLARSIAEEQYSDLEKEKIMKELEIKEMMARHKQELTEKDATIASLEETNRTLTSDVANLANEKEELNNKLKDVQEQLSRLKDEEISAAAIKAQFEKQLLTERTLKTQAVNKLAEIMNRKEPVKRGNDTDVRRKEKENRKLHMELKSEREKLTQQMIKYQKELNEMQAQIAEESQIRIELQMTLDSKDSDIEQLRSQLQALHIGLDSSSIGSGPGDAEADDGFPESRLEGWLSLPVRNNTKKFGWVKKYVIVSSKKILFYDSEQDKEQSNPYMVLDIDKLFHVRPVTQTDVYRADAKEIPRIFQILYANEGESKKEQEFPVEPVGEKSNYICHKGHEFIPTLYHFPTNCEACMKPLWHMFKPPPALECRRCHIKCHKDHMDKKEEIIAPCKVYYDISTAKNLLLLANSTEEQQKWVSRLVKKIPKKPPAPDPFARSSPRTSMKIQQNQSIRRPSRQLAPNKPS
One may read the IC50 as the concentration that inhibits the measured activity by half. High values mean lower potency, low ones higher potency. `Cc1ccccc1CNC(=O)NCC(N)c1ccc(C(=O)Nc2ccncc2)cc1` (centres undefined): the half-maximal inhibitory concentration (IC50) lay within 50 to 500 nM.

Take `CCOc1ccccc1CCNC(=O)CC(N)c1ccc(C(=O)Nc2ccncc2)cc1` (centres undefined): the half-maximal inhibitory concentration (IC50) fell in the range of 50 to 500 nM.

Compound `CC(C)C(C(=O)N(C)CC(N)c1ccc(C(=O)Nc2ccncc2)cc1)c1ccc(Cl)cc1` (centres undefined) yielded an IC50 of 500 to 5000 nM.

On to `NC(c1ccc(C(=O)Nc2ccncc2)cc1)C1CCCN1C(=O)C1(c2ccc(Cl)cc2)CCC1` (centres undefined), for which the half-maximal inhibitory concentration (IC50) was in the range of 500 to 5000 nM.

Regarding `Cn1cccc1C(=O)NCC(N)c1ccc(C(=O)Nc2ccncc2)cc1` (centres undefined), the IC50 fell in the range of 500 to 5000 nM.

Regarding `CN(CC(N)c1ccc(C(=O)Nc2ccncc2)cc1)C(=O)Cc1ccc(O)c([N+](=O)[O-])c1` (centres undefined), the half-inhibitory concentration (IC50) was 50 to 500 nM.

Consider `NC(CNC(=O)Nc1ccc(Cl)cc1)c1ccc(C(=O)Nc2ccncc2)cc1` (centres undefined), for which the half-maximal inhibitory concentration (IC50) was in the range of 50 to 500 nM.

In turn, `NC(c1ccc(C(=O)Nc2ccncc2)cc1)C1CCCN1C(=O)Cc1ccc(F)cc1F` (centres undefined) gave an IC50 of 50 to 500 nM.

In the case of `NC(CNC(=O)C1CCC1)c1ccc(C(=O)Nc2ccncc2)cc1` (centres undefined), the half-maximal inhibitory concentration (IC50) was 500 to 5000 nM.

`CCCCNNC(=O)CC(N)c1ccc(C(=O)Nc2ccncc2)cc1` (centres undefined) showed a half-maximal inhibitory concentration (IC50) of 50 to 500 nM.

With `NC(CNC(=O)c1ccc(-c2ccccc2)cc1)c1ccc(C(=O)Nc2ccncc2)cc1` (centres undefined), the IC50 was in the range of 500 to 5000 nM.

As for `Cc1ccccc1NC(=S)NCC(N)c1ccc(C(=O)Nc2ccncc2)cc1` (centres undefined), the IC50 was 500 to 5000 nM.

The compound `NC(c1ccc(C(=O)Nc2ccncc2)cc1)C1CCCN1C(=O)Cc1c(F)cccc1Cl` (centres undefined) showed an IC50 of 500 to 5000 nM.

`NC(CC(=O)NCCc1ccccc1Cl)c1ccc(C(=O)Nc2ccncc2)cc1` (centres undefined) returned a half-inhibitory concentration (IC50) of 50 to 500 nM.

Regarding `NC(CNC(=O)c1cccc(S(=O)(=O)Nc2ccccc2)c1)c1ccc(C(=O)Nc2ccncc2)cc1` (centres undefined), the IC50 lay in the range of 500 to 5000 nM.

Consider `N[C@H](CC(=O)N[C@@H]1COc2ccccc21)c1ccc(C(=O)Nc2ccncc2)cc1`, for which the IC50 is less than 50 nM.

`N[C@@H](CNC(=O)C1(c2ccc(Cl)cc2)CC1)c1ccc(C(=O)Nc2ccncc2)cc1` showed an IC50 of 500 to 5000 nM.

`COC(=O)C(C)NC(=O)CC(N)c1ccc(C(=O)Nc2ccncc2)cc1` (centres undefined) registered an IC50 of 50 to 500 nM.

`CC(C)CC(=O)NCC(N)c1ccc(C(=O)Nc2ccncc2)cc1` (centres undefined) gave an IC50 of 500 to 5000 nM.

The compound `Cc1cccc(CC(=O)NCC(N)c2ccc(C(=O)Nc3ccncc3)cc2)c1` (centres undefined) returned a concentration for half-maximal inhibition (IC50) of 50 to 500 nM.

In turn, `NC(CC(=O)NCc1cccc(F)c1)c1ccc(C(=O)Nc2ccncc2)cc1` (centres undefined) showed an IC50 of 50 to 500 nM.

With `NC(CNC(=O)c1cc2cc(Cl)ccc2o1)c1ccc(C(=O)Nc2ccncc2)cc1` (centres undefined), the IC50 was in the range of 500 to 5000 nM.

Turning to `NC(CNC(=O)Cc1ccc2c(c1)OCO2)c1ccc(C(=O)Nc2ccncc2)cc1` (centres undefined), the IC50 lay within 50 to 500 nM.

Compound `NC(CC(=O)NCc1cccc(Cl)c1Cl)c1ccc(C(=O)Nc2ccncc2)cc1` (centres undefined) yielded a 50% inhibitory concentration (IC50) of 50 to 500 nM.

`COc1ccc(C2(C(=O)NCC(N)c3ccc(C(=O)Nc4ccncc4)cc3)CCCC2)cc1` (centres undefined): the IC50 lay in the range of 50 to 500 nM.

The compound `NC(CC(=O)NCc1ccccn1)c1ccc(C(=O)Nc2ccncc2)cc1` (centres undefined) returned a half-inhibitory concentration (IC50) of 50 to 500 nM.

The compound `NC(CC(=O)N[C@H]1CCCc2ccccc21)c1ccc(C(=O)Nc2ccncc2)cc1` (some centres undefined) yielded a concentration for half-maximal inhibition (IC50) of 50 to 500 nM.

Turning to `Cc1cccc(CNC(=O)CC(N)c2ccc(C(=O)Nc3ccncc3)cc2)c1` (centres undefined), the half-maximal inhibitory concentration (IC50) was in the range of 50 to 500 nM.

Consider `NC(CNC(=O)C1CCCC1)c1ccc(C(=O)Nc2ccncc2)cc1` (centres undefined), for which the IC50 fell in the range of 500 to 5000 nM.

As for `NC(CNC(=O)C1(c2ccc(F)c(F)c2)CC1)c1ccc(C(=O)Nc2ccncc2)cc1` (centres undefined), the IC50 was 50 to 500 nM.

Consider `NC(CNC(=O)c1cnccn1)c1ccc(C(=O)Nc2ccncc2)cc1` (centres undefined), for which the concentration for half-maximal inhibition (IC50) lay in the range of 500 to 5000 nM.

The compound `CC(C)CCC(=O)NCC(N)c1ccc(C(=O)Nc2ccncc2)cc1` (centres undefined) gave an IC50 of 500 to 5000 nM.

As to `Cc1ccsc1C=NOCC(=O)NCC(N)c1ccc(C(=O)Nc2ccncc2)cc1` (centres undefined), the IC50 fell in the range of 500 to 5000 nM.

In turn, `NC(CC(=O)NC1c2ccccc2-c2ccccc21)c1ccc(C(=O)Nc2ccncc2)cc1` (centres undefined) came in with an IC50 of 50 to 500 nM.

In the case of `NC(CC(=O)NCc1cccc(OC(F)(F)F)c1)c1ccc(C(=O)Nc2ccncc2)cc1` (centres undefined), the IC50 fell in the range of 50 to 500 nM.

Take `NC(c1ccc(C(=O)Nc2ccncc2)cc1)C1CCCN1C(=O)C1CCOc2ccc(Cl)cc21` (centres undefined): the IC50 is 500 to 5000 nM.

Compound `CN(CC(N)c1ccc(C(=O)Nc2ccncc2)cc1)C(=O)Cc1cncc(Br)c1` (centres undefined) displayed a concentration for half-maximal inhibition (IC50) of 500 to 5000 nM.

In the case of `NC(c1ccc(C(=O)Nc2ccncc2)cc1)C1CCCN1C(=O)Cc1ccc(Br)cc1` (centres undefined), the IC50 lay in the range of 50 to 500 nM.

Compound `CC(=O)NCCNC(=O)CC(N)c1ccc(C(=O)Nc2ccncc2)cc1` (centres undefined) yielded a 50% inhibitory concentration (IC50) of 50 to 500 nM.

In the case of `NC(CNC(=O)c1ccsc1)c1ccc(C(=O)Nc2ccncc2)cc1` (centres undefined), the half-maximal inhibitory concentration (IC50) fell in the range of 50 to 500 nM.

`CC(C)(Cc1ccc(F)cc1)NC(=O)CC(N)c1ccc(C(=O)Nc2ccncc2)cc1` (centres undefined) came in with an IC50 of 50 to 500 nM.

For the compound `NC(CNC(=O)CNC(=O)c1ccccc1)c1ccc(C(=O)Nc2ccncc2)cc1` (centres undefined), the IC50 fell in the range of 50 to 500 nM.

The compound `CN(CC(N)c1ccc(C(=O)Nc2ccncc2)cc1)C(=O)C1(c2ccc(Cl)c(Cl)c2)CCC1` (centres undefined) yielded a half-inhibitory concentration (IC50) of 500 to 5000 nM.

For `Cc1ccc(CNC(=O)CC(N)c2ccc(C(=O)Nc3ccncc3)cc2)cc1Cl` (centres undefined), the concentration for half-maximal inhibition (IC50) fell in the range of 50 to 500 nM.

The values above are taken from the Kinase Knowledgebase extract (Sharma et al. 2016).
